# Laboratory results: patent US6787545B1, “Pyrrolotriazine derivatives having spla2-inhibitory activities” (Shiongi & Co., Ltd., priority 1999, dated 2004)
# pIC50: −log10 of the molar value.
# Legend:
# [1] = target: T1, recombinant human secretory phospholipase A2 (Homo sapiens, UniProt P14555); assay: Inhibition test of human secretory phospholipase A2 (chromogenic assay, 96 well microtiterplate); assay type: biochemical; conditions: sPLA2 50 ng/well, 40° C., 30 minutes, OD 405 nm, substrate 1,2-bis(heptanoylthio)-1,2-dideoxy-sn-glycero-3-phospholylcholine
# T1 sequence (P14555 21-144): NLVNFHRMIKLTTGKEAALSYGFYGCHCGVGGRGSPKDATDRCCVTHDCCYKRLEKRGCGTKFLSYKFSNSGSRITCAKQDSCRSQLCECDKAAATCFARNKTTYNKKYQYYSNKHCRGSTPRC
# Description: Inhibition Test of Human Secretory Phospholipase A2 Analytical Experiment
# In order to identify and evaluate an inhibitor of recombinant human secretory phospholipase A2, the following chromogenic assay is utilized. The assay herein has been applied for high volume screening wherein 96 well microtiterplate is used. A general explanation for such assay is described in “Analysis of Human Synovial Fluid Phospholipase A2 on Short Chain Phosphatidylcholine-Mixed Micelles: Development of a Spectrophotometric Assay Suitable for a Micortiterplate Reader” (Analytical Biochemistry, 204, pp 190-197, 1992 by Laure. J. Reynolds. Lori L. Hughes and Edward A. Dennis: the disclosure of which is incorporated herein for reference.
# 1 mg of sPLA2 is dissolved in 1 ml of an enzyme buffer. Thereafter, the solution is maintained at 4° C.
# In the assay, 5 μl of the solution is diluted with 1995 μl of the reaction buffer to be used.
# 198 mg of 5,5′-dithiobis-2-[…] (manufactured by Wako Pure Chemicals) is dissolved in 100 ml of H2O
# pH 7.5 (adjusted with NaOH)
# 100 mg of racemic 1,2-bis(heptanoylthio)-1,2-dideoxy-sn-glycero-3-phospholylcholine is dissolved in 1 ml of chloroform.
# 624.9 mg of Triton-X 100 is dissolved in the reaction buffer.
# Enzyme Reaction: for 1 Plate of Microtiterplate
# 1) 0.106 ml of the substrate solution is put in a centrifugal tube, and nitrogen gas is jetted to remove the solvent. 0.54 ml of Triton-X 100 is added thereto, the mixture is stirred, thereafter it is sonified in a bath type sonification to dissolve. To the resulting product are added 17.8 ml of the reaction buffer and 0.46 ml of DTNB, and 0.18 ml each of the admixture is poured to wells of the 96 well microtiterplate.
# 2) 10 μl of a test compound (or solvent blank) are added in accordance with alignment of plates which has been previously set.
# 3) Incubation is effected at 40° C. for 15 minutes.
# 4) 20 μl of an enzyme solution (sPLA2) which has been previously diluted (50 ng/well) are added to start reaction (40° C., 30 minutes).
# 5) Changes in absorbancy for 30 minutes are measured by a plate reader, and inhibition activity was calculated (OD: 405 nm).
# 6) IC50 was determined by plotting log concentration with respect to inhibition values within 10% to 90% inhibiting range.
Compound,pIC50 [1],melting point [°C]
COC(=O)COc1nc(C)nn2c(Cc3ccccc3)c(C)c(C(=O)C(N)=O)c12 [Compound I-1],6.69,–
Cc1nc(OCC(=O)O)c2c(C(=O)C(N)=O)c(C)c(Cc3ccccc3)n2n1 [Compound I-2],7.89,195 to 197
CCc1c(C(=O)C(N)=O)c2c(OCC(=O)OC)nc(C)nn2c1Cc1ccccc1 [Compound I-3],6.50,170 to 171
CCc1c(C(=O)C(N)=O)c2c(OCC(=O)O)nc(C)nn2c1Cc1ccccc1-c1cccs1 [Compound I-6],7.96,184 to 186
CCc1c(C(=O)C(N)=O)c2c(OCC(=O)OC)nc(C)nn2c1Cc1ccccc1-c1ccccc1 [Compound I-7],6.22,–

# More lines, in order of rising pIC50 [1], values ahead:
pIC50 [1],melting point [°C],Compound
7.96,207 to 209,CCc1c(C(=O)C(N)=O)c2c(OCC(=O)O)nc(C)nn2c1Cc1ccccc1 [Compound I-4]
8.10,174 to 176,CCc1c(C(=O)C(N)=O)c2c(OCC(=O)O)nc(C)nn2c1Cc1ccccc1-c1ccccc1 [Compound I-8]
